Experimental data: patent publication US10508104B2, “6-hydroxy-5-(phenyl/heteroarylsulfonyl)pyrimidin-4(1H)-one as APJ agonists” (Bristol-Myers Squibb Company, priority 2016, dated 2019)

The molecules below were run against human APJ receptor (Homo sapiens (Human), UniProt P35414) (assay: Intracellular cAMP accumulation assay (APJ hcAMP, HTRF)). Details: HEK293 cells stably expressing human APJ receptor; inhibition of forskolin-mediated cAMP production; read-out: Human APJ cAMP EC50 Potency range.
Format: cell-based
In short: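 HEK293 cells stably expressing human APJ, 5,000 per well, incubated 30 min at rt with compound, […] and 2 μM forskolin. cAMP measured by HTRF against a cAMP standard curve as inhibition of forskolin-driven production. EC50 from variable-slope sigmoidal fit.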

Sequence of human APJ receptor (P35414 whole entry): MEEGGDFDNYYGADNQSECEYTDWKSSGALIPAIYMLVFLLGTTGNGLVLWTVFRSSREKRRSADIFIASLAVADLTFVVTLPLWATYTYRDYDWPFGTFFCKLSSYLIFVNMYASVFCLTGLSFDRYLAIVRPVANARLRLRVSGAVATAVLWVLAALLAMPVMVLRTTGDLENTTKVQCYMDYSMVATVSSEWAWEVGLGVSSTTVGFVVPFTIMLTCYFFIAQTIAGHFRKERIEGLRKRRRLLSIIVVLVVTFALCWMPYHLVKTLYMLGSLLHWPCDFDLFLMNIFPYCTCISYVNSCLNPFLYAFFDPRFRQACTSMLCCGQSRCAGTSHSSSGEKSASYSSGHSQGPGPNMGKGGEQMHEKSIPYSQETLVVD

Q: For `CCCCc1nc(=O)c(S(=O)(=O)c2ccc(-c3ccncc3C)cn2)c(O)n1[C@@H](CC)c1cccc(C#N)c1` [Example 457, 3-[(1S)-1-[2-butyl-6-hydroxy-5-({3′-methyl-[3,4′-bipyridine]-6-yl}sulfonyl)-4-oxo-1,4-dihydropyrimidin-1-yl]propyl]benzonitrile], which EC50 is on record?
A: 0.01 to 10 nM

Q: With `CCCCc1nc(=O)c(S(=O)(=O)c2ccc(-c3ccncc3C)cc2)c(O)n1[C@@H](CC)c1ccc(F)cc1` [Example 423, 2-butyl-1-[(1S)-1-(4-fluorophenyl)propyl]-6-hydroxy-5-[4-(3-methylpyridin-4-yl)benzenesulfonyl]-1,4-dihydropyrimidin-4-one] as the molecule, how does the EC50 read?
A: 0.01 to 10 nM

Q: Which EC50 does the source give for `CCCCc1nc(=O)c(S(=O)(=O)c2ccc(-c3ccccc3C)cn2)c(O)n1[C@@H](CC)c1cccc(C#N)c1` [Example 482, 3-[(1S)-1-(2-butyl-6-hydroxy-5-{[5-(2-methy!phenyl)pyridin-2-yl]sulfonyl}-4-oxo-1,4-dihydropyrimidin-1-yl)propyl]benzonitrile] here?
A: 0.01 to 10 nM

Q: With `CC[C@@H](c1cccc(C#N)c1)n1c(COC(C)C)nc(=O)c(S(=O)(=O)c2ccc(-c3ccc(F)nc3C)cc2)c1O` [Example 382, 3-[(1S)-1-{5-[4-(6-fluoro-2-methylpyridin-3-yl)benzenesulfonyl]-6-hydroxy-4-oxo-2-[(propan-2-yloxy)methyl]-1,4-dihydropyrimidin-1-yl}propyl]benzonitrile] as the molecule, how does the EC50 read?
A: 0.01 to 10 nM

Q: `CC[C@@H](c1cccc(C#N)c1)n1c(CC2CC2)nc(=O)c(S(=O)(=O)c2ccc(-c3ccncc3C(N)=O)cc2)c1O` [Example 470, 4-[4-({1-[(1S)-1-(3-cyanophenyl)propyl]-2-(cyclopropylmethyl)-6-hydroxy-4-oxo-1,4-dihydropyrimidin-5-yl}sulfonyl)phenyl] pyridine-3-carboxamide] was tested. Which EC50 did it give?
A: 0.01 to 10 nM

Q: With `CCCCc1nc(=O)c(S(=O)(=O)c2ccc(-c3ccnc(F)c3C)cc2)c(O)n1[C@@H](CC)c1ccc(F)c(C#N)c1` [Example 438, 5-[(1S)-1-{2-butyl-5-[4-(2-fluoro-3-methylpyridin-4-yl)benzenesulfonyl]-6-hydroxy-4-oxo-1,4-dihydropyrimidin-1-yl}propyl]-2-fluorobenzonitrile] as the molecule, how does the EC50 read?
A: 0.01 to 10 nM

Q: With `COC[C@@H](c1ccccc1)n1c(COC(C)C)nc(=O)c(S(=O)(=O)c2ccc(-c3ccncc3C#N)c(F)c2)c1O` [Example 405, 4-[2-fluoro-4-({6-hydroxy-1-[(1R)-2-methoxy-1-phenylethyl]-4-oxo-2-[(propan-2-yloxy)methyl]-1,4-dihydropyrimidin-5-yl}sulfonyl)phenyl]pyridine-3-carbonitrile] as the molecule, how does the EC50 read?
A: 0.01 to 10 nM

Q: `CCCCc1nc(=O)c(S(=O)(=O)c2ccc(-c3ccccc3C(=O)NC)cc2)c(O)n1[C@H](c1cccc(C#N)c1)C1CC1` [Example 530, 4′-({2-butyl-1-[(S)-(3-cyanophenyl)(cyclopropyl)methyl]-6-hydroxy-4-oxo-1,4-dihydropyrimidin-5-yl}sulfonyl)-N-methyl-[1,1′-biphenyl]-2-carboxamide] was tested. Which EC50 did it give?
A: 0.01 to 10 nM

Q: With `CCCCc1nc(=O)c(S(=O)(=O)c2ccc(-c3ccnc(F)c3C)cc2)c(O)n1C(c1cccc(C#N)c1)C1CC1` (stereo not shown) [Example 459, 3-({2-butyl-5-[4-(2-fluoro-3-methylpyridin-4-yl)benzenesulfonyl]-6-hydroxy-4-oxo-1,4-dihydropyrimidin-1-yl}(cyclopropyl)methyl) benzonitrile] as the molecule, how does the EC50 read?
A: 0.01 to 10 nM

Q: How did the EC50 turn out when `CCCCc1nc(=O)c(S(=O)(=O)[C@H]2CC[C@H](OCc3ccccc3)CC2)c(O)n1-c1c(CC)cccc1CC` [Example 364, 2-butyl-1-(2,6-diethylphenyl)-6-hydroxy-5-{[(1r,4r)-4-(benzyloxy)cyclohexyl]sulfonyl}-1,4-dihydropyrimidin-4-one] was run?
A: 0.01 to 10 nM

Q: With `COC[C@@H](c1cc(F)cc(F)c1)n1c(COC(C)C)nc(=O)c(S(=O)(=O)c2ccc(-c3cn(C)nc3C)cc2)c1O` [Example 396, 1-[(1R)-1-(3,5-difluorophenyl)-2-methoxyethyl]-5-[4-(1,3-dimethyl-1H-pyrazol-4-yl)benzenesulfonyl]-6-hydroxy-2-[(propan-2-yloxy)methyl]-1,4-dihydropyrimidin-4-one] as the molecule, how does the EC50 read?
A: 0.01 to 10 nM

Q: For `COC[C@@H](c1cccc(C#N)c1)n1c(COC(C)C)nc(=O)c(S(=O)(=O)c2ccc(-c3cnccc3C#N)cc2)c1O` [Example 411, 3-[4-({1-[(1R)-1-(3-cyanophenyl)-2-methoxyethyl]-6-hydroxy-4-oxo-2-[(propan-2-yloxy)methyl]-1,4-dihydropyrimidin-5-yl}sulfonyl)phenyl]pyridine-4-carbonitrile], which EC50 is on record?
A: 0.01 to 10 nM

Same assay, conditions: human APJ, cAMP accumulation; read-out: Human APJ cAMP EC50 Potency range

Q: For `CCOCc1nc(=O)c(S(=O)(=O)c2ccc(-c3ccnc(F)c3C)c(F)c2)c(O)n1[C@@H](COC)c1cccc(C#N)c1` [Example 343, 3-[(1R)-1-[2-(ethoxymethyl)-5-[3-fluoro-4-(2-fluoro-3-methylpyridin-4-yl)benzenesulfonyl]-6-hydroxy-4-oxo-1,4-dihydropyrimidin-1-yl]-2-methoxyethyl] benzonitrile], which EC50 is on record?
A: 0.01 to 10 nM

Q: For `CCCCc1nc(=O)c(S(=O)(=O)c2ccc(-c3ccncc3C)cc2)c(O)n1[C@H](CC)c1cccc2c1OCO2` [Example 259, 1-[(1R)-1-(2H-1,3-benzodioxol-4-yl)propyl]-2-butyl-6-hydroxy-5-[4-(3-methylpyridin-4-yl)benzenesulfonyl]-1,4-dihydropyrimidin-4-one], which EC50 is on record?
A: 0.01 to 10 nM

Q: For `CCOCc1nc(=O)c(S(=O)(=O)c2ccc(-c3cncc(F)c3)cc2)c(O)n1[C@@H](CC)c1ccccc1` [Example 334, 2-(ethoxymethyl)-5-[4-(5-fluoropyridin-3-yl)benzenesulfonyl]-6-hydroxy-1-[(1S)-1-phenylpropyl]-1,4-dihydropyrimidin-4-one], which EC50 is on record?
A: 0.01 to 10 nM

Q: `COC[C@@H](c1ccccc1)n1c(C2CCCO2)nc(=O)c(S(=O)(=O)c2ccc(-c3ccc(F)nc3)cc2)c1O` (single isomer, unassigned) [Example 358] was tested. Which EC50 did it give?
A: 0.01 to 10 nM

Same assay, conditions: human APJ, intracellular cAMP accumulation; read-out: Human APJ cAMP EC50 Potency range

Q: For `CCCCc1nc(=O)c(S(=O)(=O)c2ccc(C(=O)Nc3ccc(F)nc3)cc2)c(O)n1-c1c(OC)cccc1OC` [Example 97, 4-{[2-butyl-1-(2,6-dimethoxyphenyl)-6-hydroxy-4-oxo-1,4-dihydropyrimidin-5-yl]sulfonyl}-N-(6-fluoropyridin-3-yl)benzamide], which EC50 is on record?
A: 10 to 100 nM

Q: `CCCc1nc(=O)c(S(=O)(=O)c2ccc(Br)cc2)c(O)n1[C@@H](COC)c1ccccc1` [Example 125, 5-(4-bromobenzenesulfonyl)-6-hydroxy-1-[(1R)-2-methoxy-1-phenylethyl]-2-propyl-1,4-dihydropyrimidin-4-one] was tested. Which EC50 did it give?
A: 100 to 300 nM

Q: How did the EC50 turn out when `CCCCc1nc(=O)c(S(=O)(=O)C2CCN(C(=O)c3ccccc3)CC2)c(O)n1-c1c(OC)cccc1OC` [Example 111, 5-[(1-benzoylpiperidin-4-yl)sulfonyl]-2-butyl-1-(2,6-dimethoxyphenyl)-6-hydroxy-1,4-dihydropyrimidin-4-one] was run?
A: 0.01 to 10 nM

Q: For `COc1cccc(OC)c1-n1c(CCC(C)C)nc(=O)c(S(=O)(=O)c2ccccn2)c1O` [Example 99, 1-(2,6-dimethoxyphenyl)-6-hydroxy-2-(3-methylbutyl)-5-(pyridine-2-sulfonyl)-1,4-dihydropyrimidin-4-one], which EC50 is on record?
A: 0.01 to 10 nM

Q: `CCCCc1nc(=O)c(S(=O)(=O)c2ccc(C)cc2)c(O)n1-c1c(OC)cccc1OC` [Example 62, 2-butyl-1-(2,6-dimethoxyphenyl)-6-hydroxy-5-(4-methylbenzenesulfonyl)-1,4-dihydropyrimidin-4-one] was tested. Which EC50 did it give?
A: 0.01 to 10 nM

Q: With `CCCCc1nc(=O)c(S(=O)(=O)c2ccc(C)cc2)c(O)n1[C@H](C)c1ccccc1` [Example 130, 2-butyl-6-hydroxy-5-(4-methylbenzenesulfonyl)-1-[(1R)-1-phenylethyl]-1,4-dihydropyrimidin-4-one] as the molecule, how does the EC50 read?
A: 10 to 100 nM

Q: For `CCCCc1nc(=O)c(S(=O)(=O)c2ccc(-c3ccccc3)cc2)c(O)n1-c1c(OC)cccc1OC` [Example 8, 2-butyl-1-(2,6-dimethoxyphenyl)-6-hydroxy-5-(4-phenylbenzenesulfonyl)-1,4-dihydropyrimidin-4-one], which EC50 is on record?
A: 0.01 to 10 nM

Q: How did the EC50 turn out when `CCCCc1nc(=O)c(S(=O)(=O)c2ccc(-c3ccnc(F)c3C)cc2)c(O)n1[C@@H](CC)c1ccc2c(c1)OCO2` [Example 211, 1-[(1S)-1-(2H-1,3-benzodioxol-5-yl)propyl]-2-butyl-5-[4-(2-fluoro-3-methylpyridin-4-yl)benzenesulfonyl]-6-hydroxy-1,4-dihydropyrimidin-4-one] was run?
A: 0.01 to 10 nM

Q: Which EC50 does the source give for `CCCCc1nc(=O)c(S(=O)(=O)c2ccc(-c3ccc(F)nc3)cc2)c(O)n1-c1c(OC)cccc1OC` [Example 15, 2-butyl-1-(2,6-dimethoxyphenyl)-5-[4-(6-fluoropyridin-3-yl)benzenesulfonyl]-6-hydroxy-1,4-dihydropyrimidin-4-one] here?
A: 0.01 to 10 nM

Q: With `COc1cccc(OC)c1-n1c(CCC(C)C)nc(=O)c(S(=O)(=O)c2ccccc2-c2cn(C)nc2C(F)(F)F)c1O` [Example 25, 1-(2,6-dimethoxyphenyl)-6-hydroxy-5-{2-[1-methyl-3-(trifluoromethyl)-1H-pyrazol-4-yl]benzenesulfonyl}-2-(3-methylbutyl)-1,4-dihydropyrimidin-4-one] as the molecule, how does the EC50 read?
A: 100 to 300 nM

Q: `CCCCc1nc(=O)c(S(=O)(=O)c2ccc(Br)cc2)c(O)n1[C@@H](CC)c1cccc(OC)c1` [Example 124, 5-(4-bromobenzenesulfonyl)-2-butyl-6-hydroxy-1-[(1S)-1-(3-methoxyphenyl)propyl]-1,4-dihydropyrimidin-4-one] was tested. Which EC50 did it give?
A: 10 to 100 nM

Q: Which EC50 does the source give for `CCCCc1nc(=O)c(S(=O)(=O)c2ccc(-c3ccc(C#N)nc3)cc2)c(O)n1-c1c(OC)cccc1OC` [Example 16, 5-(4-{[2-butyl-1-(2,6-dimethoxyphenyl)-6-hydroxy-4-oxo-1,4-dihydropyrimidin-5-yl]sulfonyl)phenyl)pyri-dine-2-carbonitrile] here?
A: 0.01 to 10 nM
